Source: patent US20040235801A1, “Therapy for stroke” (priority 2001, published 2004)

Tested on: C57BL/6 mice
Experiment: Size of infarction after 90 minutes MCA occlusion (tetrazolium red)
Type: in vivo, mouse
Conditions: 24 hours after 90 min MCAO; treatment 2.5 hours after MCAO, i.p.; % of contralateral side
Description: Adult (3-5 months old) male C57BL/6 mice were obtained from Charles River Inc. (Saint-Constant, Quebec, Canada). All experimental procedures were approved by the MUHC animal care committee according to the guidelines of the Canadian Council for Animal Care. All animals were allowed free access to water before and after surgery.
Unilateral focal cerebral ischemia was induced by occlusion of the medial cerebral artery (MCA) in the left cerebral hemisphere during 1.5 hours. The MCA occlusions in mice is carried out on ˜30 C57BI/6 mice weighing 20-25 g from an adaptation of a method previously described in rats (Beaulieu, J. M., Kriz, J. and Julien, J. P. ,2002, Brain.Res. 946, 153-161). The animals were anesthetized by administration of ketamine/xylazine mg/kg i.m. To avoid hypothermia, the mouse body temperature was maintained at 37° C. with an infrared heating lamp and warm pad. […]
The area of infarct was estimated in the minimum of animals (5-7 mice) from each experimental group. […] The area of infarct was estimated according to the tetrazolium red staining, calculated in arbitrary units pixels and expressed as a percentage of a total control area, the contralateral non-stroked side of the brain. […] The infarct volume was calculated by summing up the infarct area in multiple slices. […]

CN(C)c1ccc(O)c2c1C[C@H]1C[C@H]3[C@H](N(C)C)C(O)=C(C(N)=O)C(=O)[C@@]3(O)C(O)=C1C2=O [Minocycline, minocycline]
% of ischemic area: 38.4%
